In Sander's compilation of Henry's law constants (doi:10.1246/bcsj.55.1054):

Test: Henry solubility constant Hcp at 298.15 K (mol/(m3 Pa))
Conditions: reference: Sanemasa et al. (1982)

| Structure (SMILES) | Henry solubility constant Hcp |
| --- | --- |
| Cc1cccc(C)c1C [1,2,3-trimethylbenzene] | 0.0024 |
| Cc1ccc(C)c(C)c1 [1,2,4-trimethylbenzene] | 0.0016 |
| Cc1ccccc1C [1,2-dimethylbenzene] | 0.0019 |
| Cc1cc(C)cc(C)c1 [1,3,5-trimethylbenzene] | 0.0011 |
| Cc1cccc(C)c1 [1,3-dimethylbenzene] | 0.0014 |
| Cc1ccc(C)cc1 [1,4-dimethylbenzene] | 0.0013 |
| CC(C)c1ccccc1 [(2-propyl)-benzene] | 0.00089 |
| c1ccccc1 [benzene] | 0.0017 |
| CCc1ccccc1 [ethylbenzene] | 0.0013 |
| Cc1ccccc1 [methylbenzene] | 0.0015 |
| CCCc1ccccc1 [propylbenzene] | 0.00095 |
